Experimental findings from paper PMC10788915, “Fragment Merging, Growing, and Linking Identify New Trypanothione Reductase Inhibitors for Leishmaniasis” (Journal of Medicinal Chemistry, 2024) are described below.

SMILES strings stand for the structures.

Usually CC50 stands for the concentration at which the toxic effect on the cells reaches its halfway point. Broadly, the IC50 is the concentration that inhibits the measured activity by half. Higher therefore signals lower potency.

For data set [1], the system named is human THP-1-derived macrophages. The experiment in a line: Cytotoxicity assay on human THP-1-derived macrophages (MTT). It is filed as cell-based. On the procedure:
(§1) To assess the cytotoxicity of compounds on mammalian macrophages, we tested all the compounds against both human leukemia monocyte cell line (THP-1 cells, ATCC) differentiated into macrophages by treatment with 40 ng/mL of phorbol myristate acetate (PMA; Sigma) for 48 h and peritoneal exudate macrophages harvested from Balb/c mice. […] Cell viability was evaluated using the MTT assay, and the concentration of the compound that produced a 50% reduction of cell viability in treated culture cells with respect to untreated ones (CC50) was determined by GraphPad Prism 5.0 (GraphPad Software Inc., San Diego, USA). […] The selectivity index for each compound was calculated as the ratio of cytotoxicity (CC50) in macrophages cells to activity (IC50) against Leishmania axenic amastigotes. The experiments were performed in triplicate, and two independent experiments were conducted.

Assay in data set [2]: as above
The following applies: human, THP-1 cells differentiated into macrophages with PMA, 72 h, MTT; read-out: human THP-1-derived macrophage CC50 ± SE (95% CI). The format is cell-based. On the procedure: as §1

Data set [3] addresses T1, hGR (human glutathione reductase) (Homo sapiens, UniProt P00390).
T1 construct: purchased Sigma-Aldrich
T1 sequence (P00390 44-522): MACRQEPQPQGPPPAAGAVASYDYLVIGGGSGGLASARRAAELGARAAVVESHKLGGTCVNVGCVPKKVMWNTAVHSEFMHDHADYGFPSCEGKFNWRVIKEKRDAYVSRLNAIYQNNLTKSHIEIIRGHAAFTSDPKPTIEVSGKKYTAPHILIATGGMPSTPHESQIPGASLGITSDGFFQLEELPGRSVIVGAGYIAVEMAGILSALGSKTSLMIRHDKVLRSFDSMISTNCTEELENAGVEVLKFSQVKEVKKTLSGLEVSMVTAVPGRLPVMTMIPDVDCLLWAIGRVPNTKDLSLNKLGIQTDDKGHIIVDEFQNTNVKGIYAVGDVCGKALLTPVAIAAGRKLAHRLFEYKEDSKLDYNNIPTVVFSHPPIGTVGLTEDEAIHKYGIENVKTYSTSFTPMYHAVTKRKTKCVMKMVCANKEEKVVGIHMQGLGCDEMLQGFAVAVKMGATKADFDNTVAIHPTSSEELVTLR
The data set can be described thus: hGR enzymatic inhibition assay (NADPH oxidation at 340 nm). It is filed as biochemical. The following applies: for IC50: 50 nM hGR, 100 μM NADPH, 25 °C; for SI (ratio of GR IC50/TR IC50): hGR versus LiTR. On the procedure: Enzymatic inhibition assays were performed in 50 mM HEPES pH 7.4, 40 mM NaCl at 25 °C using a JASCO V650 spectrophotometer equipped with a JASCO EHC 716 Peltier element to ensure controlled temperature. The first experiment was carried out using 50 nM LiTR, 10 or 100 μM compound to be tested, 150 μM trypanothione (trypanothione disulfide purchased from Bachem), and 100 μM NADPH (tetrasodium salt, purchased from Calbiochem). The best inhibitor candidates were then tested at concentrations ranging from 1 nM to 250 μM to determine the IC50. Assays were initiated upon addition of 100 μM NADPH to 50 nM LiTR or hGR (human glutathione reductase purchased from Sigma-Aldrich) in the presence of different concentration of compounds and 150 μM trypanothione. For both experiments, the oxidation of NADPH was followed as a decrease in absorbance at 340 nm. For each concentration of compound, the initial velocity of the NADPH oxidation was used to determine the percentage of LiTR activity with respect to that in the absence of any compound. The IC50 was determined upon fitting the residual activity of TR as a dose–response logistic equation defined as ymin + (ymax – ymin)/(1 + (x/IC50)^slope). […] The Ki was determined graphically upon linear fitting of data points for each trypanothione concentration. Data analysis was performed with QtiPlot 0.9.8.9 svn 2288, and graphs were made with Matplotlib.
Figure S3. Inhibition assay of LiTR (red) and hGR (grey) with compounds 5-6, 9-10 and 14.
Enzymatic assays were carried out at 25°C on a JASCO V650 spectrophotometer equipped with a JASCO EHC716 Peltier unit. Compound concentrations used during the experiments range from 1 […]
higher than 30 µM and 20 µM, respectively. Briefly, 50 nM LiTR or hGR (Sigma Aldrich) were mixed in 50 mM HEPES pH 7.4, 40 mM NaCl with each compound and 150 µM trypanothione or glutathione. After 3-minute incubation at 25°C, the measurement was initiated upon addition of 100 µM NADPH. The oxidation of NADPH was followed as a decrease in absorbance at 340 nm. Each initial velocity of LiTR enzymatic reaction with the compounds was expressed as a percentage of residual activity with respect to that in the absence of compound. Each data point is the mean of two measurements. The IC50 was determined upon fitting the data as a dose response logistic equation defined by the Kaleidagraph software as ymin+(ymax-ymin)/(1+(x/IC50)^slope).
(1 picture or pasted object on this page, not shown here)

`O=C(NCCc1ccc(F)cc1)c1ccc(CNC(=O)N2CC[N+](CCCc3ccccc3)(Cc3ccc(Cl)c(Cl)c3)CC2)o1.[I-]` [Compound 14, 1-(3,4-Dichlorobenzyl)-4-(((5-((4-fluorophenethyl)carbamoyl)furan-2-yl)methyl)carbamoyl)-1-(3-phenylpropyl)piperazin-1-ium Iodide]: the “SI = human THP-1-derived macrophage CC50/axenic amastigote EC50” value in data set [1] was 2.3. Also, the CC50 at 72 h in data set [2] is 20.5 ± 3.6 µM. For the same molecule, in data set [3], half-maximal inhibition (IC50) required 3.7 ± 0.3 µM and the “SI (ratio of GR IC50/TR IC50)” value is on record as 1.6.
The matching figures for `C[N+]1(CCCc2ccccc2)CCN(C(=O)N(Cc2ccc(C(=O)NCCc3ccc(F)cc3)o2)c2ccc(F)cc2)CC1.[I-]` [Compound 9, 4-(((5-((4-Fluorophenethyl)carbamoyl)furan-2-yl)methyl)(4-fluorophenyl)carbamoyl)-1-methyl-1-(3-phenylpropyl)piperazin-1-ium Iodide]: 3.7, 38.4 ± 11 µM, 62.4 ± 12.4 µM and 3.0.
The matching figures for `O=C(NCCc1ccc(F)cc1)c1ccc(CN(C(=O)N2CC[N+](CCCc3ccccc3)(Cc3ccc(Cl)c(Cl)c3)CC2)c2ccc(F)cc2)o1.[I-]` [Compound 10, 1-(3,4-Dichlorobenzyl)-4-(((5-((4-fluorophenethyl)carbamoyl)furan-2-yl)methyl)(4-fluorophenyl)carbamoyl)-1-(3-phenylpropyl)piperazin-1-ium Iodide]: 1.4, 16 ± 2.4 µM, 2.3 ± 0.1 µM and 1.7.
